Test results from publication PMC5499824 (Nucleic Acids Research, 2017).
Residue numbers refer to the chain shown, from its start.

Assays:
hNSun6 [1] = target: T1, hNSun6 (Homo sapiens, UniProt Q8TEA1); experiment: isothermal titration calorimetry; type: binding
T1 sequence (Q8TEA1 1-469): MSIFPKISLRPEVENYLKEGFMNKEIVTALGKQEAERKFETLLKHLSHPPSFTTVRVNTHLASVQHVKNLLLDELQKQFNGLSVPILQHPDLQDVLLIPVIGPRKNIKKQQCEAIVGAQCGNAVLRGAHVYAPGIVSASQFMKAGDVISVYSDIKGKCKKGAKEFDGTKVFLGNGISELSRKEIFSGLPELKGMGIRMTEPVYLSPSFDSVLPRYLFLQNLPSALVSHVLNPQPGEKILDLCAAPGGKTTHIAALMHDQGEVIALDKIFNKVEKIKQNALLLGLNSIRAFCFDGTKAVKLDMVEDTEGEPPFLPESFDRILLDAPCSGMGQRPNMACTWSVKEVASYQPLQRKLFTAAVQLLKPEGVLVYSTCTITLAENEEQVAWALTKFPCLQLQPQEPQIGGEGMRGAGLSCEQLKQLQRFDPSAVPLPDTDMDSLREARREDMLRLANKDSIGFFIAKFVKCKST

hNSun6 [2] = target: T2, hNSun6 (Homo sapiens, UniProt Q8TEA1, K248A); experiment: isothermal titration calorimetry; type: binding
T2 sequence (Q8TEA1 1-469 K248A): T1 sequence (Q8TEA1 1-469) with K248A

- Kd (hNSun6 [1]): 1.7 µM
- Kd (hNSun6 [2]): 10.3 µM
SMILES: C[S+](CC[C@H](N)C(=O)O)C[C@H]1O[C@@H](n2cnc3c(N)ncnc32)[C@H](O)[C@@H]1O (some centres unmarked) [SAM]
